According to patent publication US20160016944A1, “FUNGICIDAL 3--HETEROCYCLE DERIVATIVES” (priority 2013, published 2016):
Read-outs that look alike come from different tables or passages of the source. Marks after values point to notes of the source that are not given here.

How the values were obtained:
[1] = test system: Phytophthora infestans; format: in vivo; details: tomato plants, preventive spray, 500 ppm active ingredient, evaluated 5 days after inoculation
[2] = logP by HPLC on reversed phase columns (EEC directive 79/831 Annex V.A8); details: for LogP: method [a]: HPLC/LC-MS at pH 2.7, 0.1% formic acid in water / acetonitrile gradient, Table 1; for chromatographic logP: pH 2.7
Description: (§2) Calibration was done with not branched alkan2-ones (with 3 to 16 carbon atoms) with known log P-values (measurement of log P values using retention times with linear interpolation between successive alkanones). lambda-maX-values were determined using UV-spectra from 200 nm to 400 nm and the peak values of the chromatographic signals.

[3] = pH 2.7
Description: as §2

[4] = test system: Plasmopara viticola; test: Plasmopara test (grapevines) / preventive; format: in vivo; details: grapevine young plants, preventive spray, 10 ppm active ingredient, evaluated 6 days after inoculation
Description: To produce a suitable preparation of active compound, 1 part by weight of active compound is mixed with the stated amounts of solvent and emulsifier, and the concentrate is diluted with water to the desired concentration.
To test for preventive activity, young plants are sprayed with the preparation of active compound at the stated rate of application. After the spray coating has dried on, the plants are inoculated with an aqueous spore suspension of Plasmopara viticola and then remain for 1 day in an incubation cabinet at approximately 20° C. and a relative atmospheric humidity of 100%. The plant is subsequently placed for 4 days in a greenhouse at approximately 21° C. and a relative atmospheric humidity of approximately 90%. The plants are then misted and placed for 1 day in an incubation cabinet.
The test is evaluated 6 days after the inoculation. 0% means an efficacy which corresponds to that of the untreated control, while an efficacy of 100% means that no disease is observed.

[5] = test system: Pyrenophora teres; test: In vivo preventive test on Pyrenophora teres (net blotch on barley); details: barley plants, preventive spray, 500 ppm active ingredient, evaluated 14 days after inoculation
Description: (§1) The tested active ingredients are prepared by homogenization in a mixture of acetone/Dimethyl sulfoxide/Tween®, and then diluted with water to obtain the desired active material concentration.
The young plants of barley are treated by spraying the active ingredient prepared as described above. Control plants are treated only with an aqueous solution of acetone/Dimethyl sulfoxide/Tween®.
After 24 hours, the plants are contaminated by spraying the leaves with an aqueous suspension of Pyrenophora teres spores. The contaminated barley plants are incubated for 48 hours at 20° C. and at 100% relative humidity and then for 12 days at 20° C. and at 70-80% relative humidity.
The test is evaluated 14 days after the inoculation. 0% means an efficacy which corresponds to that of the control plants while an efficacy of 100% means that no disease is observed.

[6] = test system: Botrytis cinerea; test: In vivo preventive test on Botrytis cinerea (grey mould); details: gherkin plants, preventive spray, 500 ppm active ingredient, evaluated 4 to 5 days after inoculation
Description: as §1
The young plants of gherkin are treated by spraying the active ingredient prepared as described above. Control plants are treated only with an aqueous solution of acetone/Dimethyl sulfoxide/Tween®.
After 24 hours, the plants are contaminated by spraying the leaves with an aqueous suspension of Botrytis cinerea spores. The contaminated gherkin plants are incubated for 4 to 5 days at 17° C. and at 90% relative humidity.
The test is evaluated 4 to 5 days after the inoculation. 0% means an efficacy which corresponds to that of the control plants while an efficacy of 100% means that no disease is observed.

CCCCCCCC(=O)Nc1nc(CON=C(c2ccccc2)c2nc(=S)on2C)cs1 [Example 13]
% efficacy [1]: 98%
LogP [2]: 4.39^[a]

Cn1oc(=S)nc1C(=NOCc1csc(NC(=O)C(C)(C)C)n1)c1ccccc1 [Example 21]
LogP [2]: 3.31^[a]

Cn1oc(=S)nc1C(=NOCc1csc(NC(=O)C2COc3ccccc3O2)n1)c1ccccc1 (centres unmarked) [Example 11]
LogP [3]: 3.50^[a]
% efficacy [1]: 76%
% efficacy [4]: 82%

Cn1oc(=S)nc1/C(=N\OCc1csc(NC(=O)OC(C)(C)C)n1)c1ccccc1 [Example 30, tert-butyl {4-[({[(Z)-(2-methyl-5-thioxo-2,5-dihydro-1,2,4-oxadiazol-3-yl)(phenyl)methylene]amino}oxy)methyl]-1,3-thiazol-2-yl}carbamate]
% efficacy [1]: 100%
chromatographic logP [2]: 3.53
% efficacy [5]: 86%
% efficacy [4]: 79%

C#CCCC(C)OC(=O)Nc1nc(CON=C(c2ccccc2)c2nc(=S)on2C)cs1 (centres unmarked) [Example 25]
LogP [2]: 3.41^[a]

Cn1c(/C(=N\OCc2cccc(NC(=O)OC(C)(C)C)n2)c2ccccc2)noc1=S [Example 1, tert-butyl {6-[({[(Z)-(4-methyl-5-thioxo-4,5-dihydro-1,2,4-oxadiazol-3-yl)(phenyl)methylene]amino}oxy)methyl]pyridin-2-yl}carbamate]
% efficacy [1]: 97%
chromatographic logP [2]: 4.66

CCC(C)SC(=O)Nc1nc(CON=C(c2ccccc2)c2nc(=S)on2C)cs1 (centres unmarked) [Example 18]
% efficacy [1]: 83%
LogP [2]: 3.90^[a]

Cn1oc(=S)nc1/C(=N\OCc1csc(N)n1)c1ccccc1 [Example 20, 3-[(Z)-{[(2-amino-1,3-thiazol-4-yl)methoxy]imino}(phenyl)methyl]-2-methyl-1,2,4-oxadiazole-5(2H)-thione]
chromatographic logP [2]: 1.53

C#CCC(C)(C)OC(=O)Nc1cccc(CON=C(c2ccccc2)c2noc(=S)n2C)n1 [Example 3]
% efficacy [1]: 93%
LogP [2]: 4.54^[a]

Cn1oc(=S)nc1C(=NOCc1csc(NC(=O)C2(C)CC2)n1)c1ccccc1 [Example 15]
LogP [3]: 3.11^[a]
% efficacy [1]: 99%
% efficacy [6]: 95%

C#CCCCOC(=O)Nc1nc(CON=C(c2ccccc2)c2nc(=S)on2C)cs1 [Example 29]
LogP [3]: 3.19^[a]
% efficacy [6]: 71%

CCCCCCC(=O)Nc1nc(CON=C(c2ccccc2)c2nc(=S)on2C)cs1 [Example 24]
LogP [3]: 3.99^[a]
% efficacy [1]: 79%
% efficacy [6]: 84%

Cn1oc(=S)nc1C(=NOCc1csc(NC(=O)OC2CC3CCC2C3)n1)c1ccccc1 (centres unmarked) [Example 12]
LogP [2]: 4.06^[a]

C#CCC(C)OC(=O)Nc1nc(CON=C(c2ccccc2)c2nc(=S)on2C)cs1 (centres unmarked) [Example 22]
% efficacy [1]: 74%
LogP [2]: 3.23^[a]

Cn1oc(=S)nc1C(=NOCc1csc(NC(=O)COc2ccccc2)n1)c1ccccc1 [Example 10]
LogP [3]: 3.31^[a]
% efficacy [1]: 84%
% efficacy [6]: 74%

Cn1oc(=S)nc1C(=NOCc1csc(NC(=O)c2ccccc2)n1)c1ccccc1 [Example 23]
% efficacy [1]: 71%
% efficacy [6]: 99%
LogP [2]: 3.31^[a]

CCCCC(=O)Nc1cccc(CON=C(c2ccccc2)c2noc(=S)n2C)n1 [Example 6]
LogP [3]: 4.18^[a]
% efficacy [1]: 99%
% efficacy [5]: 96%

Cn1oc(=S)nc1C(=NOCc1csc(NC(=O)OCCOc2ccccc2)n1)c1ccccc1 [Example 27]
% efficacy [1]: 90%
LogP [2]: 4.18^[a]

CC(COc1ccccc1)OC(=O)Nc1nc(CON=C(c2ccccc2)c2nc(=S)on2C)cs1 (centres unmarked) [Example 31]
LogP [2]: 4.44^[a]

Cn1c(/C(=N\OCc2cccc(N)n2)c2ccccc2)noc1=S [Example 7, 3-[(Z)-{[(6-aminopyridin-2-yl)methoxy]imino}(phenyl)methyl]-4-methyl-1,2,4-oxadiazole-5(4H)-thione]
% efficacy [1]: 99%
chromatographic logP [2]: 1.59

CCCCCOC(=O)Nc1cccc(CON=C(c2ccccc2)c2noc(=S)n2C)n1 [Example 5]
% efficacy [1]: 80%
LogP [2]: 5.05^[a]

CCCCCC(=O)Nc1nc(CON=C(c2ccccc2)c2nc(=S)on2C)cs1 [Example 16]
LogP [3]: 3.63^[a]
% efficacy [1]: 76%
% efficacy [6]: 95%

C#CCCCCOC(=O)Nc1nc(CON=C(c2ccccc2)c2nc(=S)on2C)cs1 [Example 17]
% efficacy [1]: 100%
LogP [2]: 3.44^[a]

CCCCC(CC)COC(=O)Nc1nc(CON=C(c2ccccc2)c2nc(=S)on2C)cs1 (centres unmarked) [Example 32]
LogP [2]: 5.55^[a]

C#CCCOC(=O)Nc1cccc(CO/N=C(/c2ccccc2)c2noc(=S)n2C)n1 [Example 2, but-3-yn-1-yl {6-[({[(Z)-(4-methyl-5-thioxo-4,5-dihydro-1,2,4-oxadiazol-3-yl)(phenyl)methylene]amino}oxy)methyl]pyridin-2-yl}carbamate]
% efficacy [1]: 93%
chromatographic logP [2]: 3.87

C#CCCOC(=O)Nc1nc(CON=C(c2ccccc2)c2nc(=S)on2C)cs1 [Example 9]
% efficacy [1]: 89%
LogP [2]: 2.96^[a]

CNC(=N\O)/C(=N\OCc1cccc(NC(=O)OC(C)(C)C)n1)c1ccccc1 [VIII-1, tert-butyl {6-[({[(1Z,2Z)-2-(hydroxyimino)-2-(methylamino)-1-phenylethylidene]amino}oxy)methyl]pyridin-2-yl}carbamate]
chromatographic logP [2]: 2.6

C#CCCOC(=O)Nc1cccc(CON=C(c2ccccc2)c2nc(=NC#N)on2C)n1 [Example 19]
LogP [2]: 3.13^[a]

CN1C(C(=NOCc2cccc(NC(=O)OC(C)(C)C)n2)c2ccccc2)=NOS1=O (centres unmarked) [Example 28]
LogP [2]: 4.18^[a]

Cn1oc(=S)nc1C(=NOCc1csc(NC(=O)OCCc2ccccc2)n1)c1ccccc1 [Example 8]
% efficacy [1]: 79%
LogP [2]: 3.76^[a]

C#CCCOC(=O)Nc1cccc(CON=C(c2ccccc2)c2nc(=S)on2C)n1 [Example 26]
LogP [2]: 3.15^[a]

Cn1c(C(=NOCc2cccc(NC(=O)OCc3ccccc3)n2)c2ccccc2)noc1=S [Example 4]
LogP [2]: 4.58^[a]
